Test results: patent US10961196B2, “Compounds for use as an anti-bacterial or anti-fungal agent and as a zinc sensor” (UNIVERSITÄT KONSTANZ, priority 2016, dated 2021)
Values joined by “and” are separate entries in the source; they are usually repeats but may differ in a detail not shown here. Equal values may be shown once. Read-outs that look alike come from different tables or passages of the source. Each block holds one compound with its values, some of them ahead of it.

Columns and labels:
[1] = system: B. subtilis; experiment: Minimum inhibitory concentration (MIC), 96-well plates, serial dilutions in LB medium; format: cell-based; details: Bacillus subtilis, read-out: Minimum inhibitory concentration (MIC)
Text: (§1) Example 12: Determination of the Minimum Inhibitory Concentration (MIC) with Non-Pathogenic E. coli and B. subtilis and/or Pathogenic Strains of S. aureus Including Three MRSA Strains (USA 300, Mu50 and DSM18827) as Well as the Pathogenic Fungus Candida albicans
(§2) Minimum inhibitory concentrations (MIC) for compounds 1 to 11 with non-pathogenic E. coli and B. subtilis and/or pathogenic strains of S. aureus including three MRSA strains (USA 300, Mu50 and DSM18827) as well as the pathogenic fungus Candida albicans were determined in 96-well plates with serial dilutions in LB medium.

[2] = system: E. coli K12; experiment: as above; format: cell-based; details: Escherichia coli
Text: as §1, §2

[3] = system: S. aureus NCTC 8325; experiment: as above; format: cell-based; details: Staphylococcus aureus
Text: as §1, §2

[4] = system: Candida albicans; experiment: as above; format: cell-based; details: read-out: Minimum inhibitory concentration (MIC)
Text: as §1, §2

[5] = system: S. aureus DSM18827 (MRSA); experiment: as above; format: cell-based; details: Staphylococcus aureus, DSM 11827 / DSM 18827 / MRSA, read-out: Minimum inhibitory concentration (MIC)
Text: as §1, §2

[6] = system: S. aureus Mu50 (MRSA); experiment: as above; format: cell-based; details: Staphylococcus aureus, read-out: Minimum inhibitory concentration (MIC)
Text: as §1, §2

[7] = system: S. aureus USA 300 (MRSA); experiment: as above; format: cell-based; details: Staphylococcus aureus, read-out: Minimum inhibitory concentration (MIC)
Text: as §1, §2
Example 21: Determination of the Minimum Inhibitory Concentration (MIC) for the Compounds Represented by the Formulas (14) and (16) with the Pathogenic USA 300 (MRSA) Strain of S. aureus
Minimum inhibitory concentrations (MIC) for the compounds represented by the Formulas (14) and (16) with the pathogenic MRSA strains of S. aureus USA 300 were determined in 96-well plates with serial dilutions in LB medium.

[8] = system: human embryonic kidney cell line HEK-293; experiment: Toxicological testing, viability by resazurin reduction after 24 h; format: cell-based; details: HEK-293, 0-100 μM tested
Protocol: Example 13: Toxicological Testing with Human Embryonic Kidney Cell Line HEK-293
Compounds 3, 5, and 10 were toxicologically tested with human embryonic kidney cell line HEK-293 at concentrations varying from 0 to 100 μM (cf. FIGS. 1 to 3). The viability was measured by resazurin reduction after 24 h.

[9] = system: developing neurons (LUHMES d2-3); experiment: Toxicological testing with developing neurons in the LUHMES d2-3 assay; format: cell-based; details: 0-100 μM tested
Protocol: Example 14: Toxicological Testing with Developing Neurons in the LUHMES d2-3 Assay
Compounds 3, 5, and 10 were toxicologically tested with developing neurons in the LUHMES d2-3 assay at concentrations varying from 0 to 100 μM (cf. FIGS. 4 to 6). […] In the case of compound 5 (cf. FIG. 5), general cytotoxicity (orange line) and inhibition of neurite outgrowth each started above 40 μM (green line). For compound 10 (cf. FIG. 6), general cytotoxicity (orange line) started at 80 μM and inhibition of neurite outgrowth started at 40 μM (green line).

[10] = system: Moraxella catarrhalis; experiment: Growth curves in comparison to an untreated and a DMSO treated control; format: cell-based
Protocol: (§3) Example 22: Determination of the Inhibitory Effect of 1-S-PQS (5) Against Moraxella catarrhalis and Neisseria meningitidis by Measuring Growth Curves in Comparison to an Untreated and a DMSO Treated Control
(§4) The inhibitory effect of 1-S-PQS (5) against Moraxella catarrhalis and Neisseria meningitidis was determined by measuring growth curves in comparison to an untreated and a DMSO treated control (cf. FIGS. 11 to 14). […] M. catarrhalis is an important human pathogen responsible for otitis media in children and chronic obstructive pulmonary disease (COPD) in adults.
Example 23: Determination of the Inhibitory Effect of the Compound Represented by the Formula (14) Against Moraxella catarrhalis by Measuring Growth Curves in Comparison to an Untreated and a DMSO Treated Control
The inhibitory effect of the compound represented by the Formula (14) against Moraxella catarrhalis was determined by measuring growth curves in comparison to an untreated and a DMSO treated control (cf. FIGS. 15 and 16).

[11] = system: Neisseria meningitidis; experiment: as above; format: cell-based
Protocol: as §3, §4

[12] = system: Neisseria gonorrhoeae; experiment: as above; format: cell-based
Protocol: Example 24: Determination of the Inhibitory Effect of 1-S-PQS (5) and the Compound Represented by the Formula (14) Against Neisseria gonorrhoeae by Measuring Growth Curves in Comparison to an Untreated and a DMSO Treated Control
The inhibitory effect of 1-S-PQS (5) and the compound represented by the Formula (14) against Neisseria gonorrhoeae was determined by measuring growth curves in comparison to an untreated and a DMSO treated control (cf. FIGS. 17 to 19). […] The compound represented by the Formula (14) was effective against N. gonorrhoeae around 25-50 μM (cf. FIG. 19).

[13] = target: elastase (LasB) (Pseudomonas aeruginosa, UniProt P14756); experiment: In vitro elastase assay with fluorogenic substrate Abz-peptide-Nba; format: biochemical, P. aeruginosa
Protocol: Example 16: In Vitro Inhibition of Elastase (LasB) with Compounds 6, 7, and 12
An in-vitro elastase assay was performed according to Cathcart et al. (G. R. Cathcart, B. F. Gilmore, B. Greer, P. Harriott, B. Walker, Bioorganic & medicinal chemistry letters 2009, 19, 6230-6232). For a typical in vitro elastase assay 82 μL buffer (0.05 M TRIS HCl, 2.5 mM CaCl2, pH=7.2) and 5 μL of compound 6 solved in DMSO were added in a 96 well plate. 10 μL of 3 μg/mL elastase (solved in the same Tris/CaCl2 buffer) were added and mixed with the compound. After incubation for 10 min at room temperature, 3 μL fluorogenic substrate Abz-peptide-Nba (2-aminobenzoyl-Ala-Gly-Leu-Ala-4-nitrobenzylamide) in DMF were added and the fluorescence measured for 90 min in one minute steps (excitation at 330 nm, emission at 460 nm). The slope of the resulting graph was used to calculate the enzymatic activity.

[14] = system: S. aureus Mu50 (MRSA); details: cited from earlier work; for MIC of known antibiotics: comparison values
[15] = NCTC8325, read-out: Minimum inhibitory concentration (MIC)
[16] = S. aureus DSM18827 (also printed DSM11827), MRSA, LB medium
[17] = S. aureus Mu50 (MRSA), LB medium
[18] = NCTC8325, S. aureus NCTC 8325, LB medium, read-out: Minimum inhibitory concentration (MIC)
[19] = S. aureus USA 300 (MRSA), LB medium
[20] = 5 μM was the lowest concentration tested

Chain of elastase (LasB) (P14756 198-498): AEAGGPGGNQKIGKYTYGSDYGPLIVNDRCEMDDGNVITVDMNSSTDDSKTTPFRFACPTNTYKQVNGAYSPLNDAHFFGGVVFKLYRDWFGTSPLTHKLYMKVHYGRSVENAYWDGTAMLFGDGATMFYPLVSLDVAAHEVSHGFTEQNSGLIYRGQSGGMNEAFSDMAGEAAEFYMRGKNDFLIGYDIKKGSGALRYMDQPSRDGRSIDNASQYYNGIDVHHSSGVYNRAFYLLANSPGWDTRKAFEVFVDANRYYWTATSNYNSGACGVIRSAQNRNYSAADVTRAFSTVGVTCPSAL

Compound: CCCCCCCc1cc(=O)c2ccccc2[nH]1 [Compound 1, 2-heptyl-4-quinolone, reference compound]
MIC [1]: > 1000 µM and > 243 µg/mL
MIC [2]: > 1000 µM and > 243 µg/mL
MIC [3, 15]: > 1000 µM and > 243 µg/mL

Compound: CCCCCCCc1cc(=O)c2ccccc2[te]1 [Compound 2, 2-heptyl-4H-tellurochromen-4-one]
MIC [1]: 100 µM to 250 µM and 36 µg/mL to 89 µg/mL

Compound: CCCCCCCc1c/c(=N/O)c2ccccc2[nH]1 [Compound 3, 2-heptylquinolin-4(1H)-one oxime]
MIC [1]: 50 µM and 12.9 µg/mL
MIC [4]: 100 µM and 25.8 µg/mL
MIC [2]: 300 µM and 78 µg/mL
MIC [5]: 60 µM and 15.5 µg/mL
MIC ([6]; MRSA): 60 µM and 15.5 µg/mL
MIC [3, 15]: 60 µM and 15.5 µg/mL
MIC [7]: 60 µM and 15.5 µg/mL
Concentration at which cell toxicity starts [8]: 40 µM
Concentration at which general cytotoxicity starts [9]: above 10 μM
Concentration at which inhibition of neurite outgrowth starts [9]: above 2.5 μM

Compound: CCCCCCCc1[nH]c2ccccc2c(=O)c1O [Compound 4, 2-heptyl-3-hydroxy-4-quinolone, reference compound]
MIC [1]: > 1000 µM and > 259 µg/mL
MIC [2]: > 1000 µM and > 259 µg/mL
MIC [3, 15]: > 1000 µM and > 259 µg/mL

MIC ([1]; B. subtilis, LB medium): 25 µM and 6.91 µg/mL
MIC [5, 16]: 35 µM and 9.67 µg/mL
MIC [6, 17]: 25 µM and 6.91 µg/mL
MIC [3, 18]: 30 µM and 8.29 µg/mL
MIC [7, 19]: 30 µM and 8.29 µg/mL
Compound: CCCCCCCc1sc2ccccc2c(=O)c1O [Compound 5, 2-heptyl-3-hydroxy-4H-thiochromen-4-one]
Concentration at which general cytotoxicity starts [9]: above 40 μM
Concentration at which inhibition of neurite outgrowth starts [9]: above 40 μM
Growth relative to DMSO control ([10]; 5 μM): 0.1
Concentration at which growth was completely inhibited [10, 20]: ≤ 5 µM
Growth relative to DMSO control ([10]; 10 μM): 0.0
Growth relative to DMSO control ([10]; 25 μM): 0.0
Growth relative to DMSO control ([10]; 50 μM): 0.0
Concentration at which growth was completely inhibited ([10]; lowest concentration tested (5 μM) expressed in μg/mL): ≤ 1.4 µg/mL
Concentration at which growth was completely inhibited [11]: 10 µM
Growth relative to DMSO control ([11]; 5 μM): 0.4
Growth relative to DMSO control ([11]; 10 μM): 0.0
Growth relative to DMSO control ([11]; 25 μM): 0.0
Growth relative to DMSO control ([11]; 50 μM): 0.0
Concentration at which growth was completely inhibited [12]: 25 µM

Compound: CCCCCCCc1oc2ccccc2c(=S)c1O [Compound 7, 2-heptyl-3-hydroxy-4H-chromene-4-thione]
MIC [5, 16]: 72.5 µM and 20 µg/mL
MIC [6, 17]: 50 µM and 13.8 µg/mL
MIC [3, 18]: 60 µM and 16.6 µg/mL
MIC [7, 19]: 60 µM and 16.6 µg/mL
IC50 [13]: 2000 nM

Compound: CCCCCCCc1[nH]c2ccccc2/c(=N\O)c1O [Compound 8, 2-heptyl-3-hydroxyquinolin-4(1H)-one oxime]
MIC [5]: 150 µM and 41.1 µg/mL
MIC ([6]; MRSA): 100 µM and 27.4 µg/mL
MIC [3, 15]: 200 µM and 54.9 µg/mL
MIC [7]: 100 µM and 27.4 µg/mL

Compound: Cc1sc2ccccc2c(=O)c1O [Compound 9, 3-hydroxy-2-methyl-thiochromen-4-one]
MIC [5]: > 1000 µM and > 192 µg/mL
MIC ([6]; MRSA): > 1000 µM and > 192 µg/mL
MIC [3, 15]: > 1000 µM and > 192 µg/mL
MIC [7]: > 1000 µM and > 192 µg/mL

MIC [5, 16]: 50 µM and 11.7 µg/mL
MIC [6, 17]: 50 µM and 11.7 µg/mL
MIC [3, 18]: 50 µM and 11.7 µg/mL
MIC [7, 19]: 50 µM and 11.7 µg/mL
Compound: CCCCc1sc2ccccc2c(=O)c1O [Compound 10, 3-hydroxy-2-butyl-thiochromen-4-one]
Concentration at which general cytotoxicity starts [9]: 80 µM
Concentration at which inhibition of neurite outgrowth starts [9]: 40 µM

MIC [5, 16]: 40 µM and 11.8 µg/mL
MIC [6, 17]: 40 µM and 11.8 µg/mL
MIC [3, 18]: 35 µM and 10.3 µg/mL
MIC [7, 19]: 35 µM and 10.3 µg/mL
Compound: CCCCCCCc1sc2ccc(F)cc2c(=O)c1O [Compound 11, 6-fluoro-2-heptyl-3-hydroxy-4H-thiochromen-4-one]

Compound: CCCCCCCc1sc2ccccc2c(=S)c1O [Compound 12, 2-heptyl-3-hydroxy-4H-thiochromene-4-thione]
IC50 [13]: 2000 nM

MIC [7, 19]: 40 µM and 11.3 µg/mL
Compound: O=c1c(O)c(CCc2ccccc2)sc2ccccc12 [Formula (14)]
Concentration at which growth was completely inhibited [10, 20]: ≤ 5 µM
Concentration at which the compound was effective [12]: 25 to 50 µM

MIC [7, 19]: > 100 µM and > 32 µg/mL
Compound: CCCCCCCCCCc1sc2ccccc2c(=O)c1O [Formula (16)]

Compound: CC1(C)S[C@@H]2[C@H](NC(=O)[C@H](N)c3ccccc3)C(=O)N2[C@H]1C(=O)O [ampicillin]
MIC of known antibiotics [14]: 37 µg/mL

Compound: O=C(O)c1cn(C2CC2)c2cc(N3CCNCC3)c(F)cc2c1=O [ciprofloxacin]
MIC of known antibiotics [14]: 66 µg/mL

Compound: CC[C@H]1OC(=O)[C@H](C)[C@@H](O[C@H]2C[C@@](C)(OC)[C@@H](O)[C@H](C)O2)[C@H](C)[C@@H](O[C@@H]2O[C@H](C)C[C@H](N(C)C)[C@H]2O)[C@](C)(O)C[C@@H](C)C(=O)[C@H](C)[C@@H](O)[C@]1(C)O [erythromycin]
Concentration to inhibit growth (commercial antibiotics) ([14]; background section): > 1 mM
